Like-named read-outs stand apart in the source and are kept apart here.
Columns and labels:
[1] = format: physicochemical; settings: for Tht category (> 1.5 to blank = +): category 1/0
Procedure, shortened: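 Preformed peptide fibrils (1 mg/mL) mixed with 50 µM ThT in PBS, 15 min at RT, fluorescence ex 440/em 488 nm versus PBS blank, triplicates. Zeta potential: peptides at 1 mg/mL in PBS pH 7.4, aged 1 d at RT, diluted in 1 mM KCl, Smoluchowski from electrophoretic mobility.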

[2] = Turbidity, derived count rate of scattered light; format: physicochemical; settings: for Log Count Rate: log of derived count rate
Procedure, shortened: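 Samples: 1 mg/mL in PBS pH 7.4 (from DMSO), 1 d at RT, then diluted in 1 mM KCl immediately before measurement. Triplicates, two independent runs averaged.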

[3] = ThT fluorescence relative to blank (42.1851851851852 a.u.)
[4] = relative to blank 42.1851851851852 a.u.
[5] = Fig S8 panels A, C, asymmetric log errors
[6] = Fig S8 panels B, D, turbidity, derived count rate of scattered light
[7] = category 1 or 0 from count rate, key not given
[8] = derived count rate of scattered light, mean, std deviation in next column
[9] = derived count rate of scattered light, mean, std deviation in separate column
[10] = category 1 or 0 derived from the count rate, key not given
[11] = ThT fluorescence relative to blank, blank = 42.1851851851852
[12] = derived count rate of scattered light
[13] = derived count rate from zeta measurement, mean

Row | Substance | Tht rel to blank (42.1851851851852) [1, 3] | Tht category (> 1.5 to blank = +) [1] | Tht rel to blank (42.1851851851852) [1, 4] | Log Count Rate [2, 5] | Log Count Rate ([2]; Fig S8 panels B, D) | Count Rate [2, 6] | Zeta Count Rate Category ([2]; category 1/0, no key printed) | Zeta Count Rate Category [2, 7] | Zeta Count Rate / kcps [2, 8] [kcps] | Zeta Count Rate / kcps [2, 9] [kcps] | Tht rel to blank (42.1851851851852) [1, 11] | Zeta Count Rate Category ([2]; category 1 / 0, no key given) | Zeta Count Rate / kcps [2, 12] [kcps] | also measured
1 | CKFKFQFNM [BL3] | 2.383 | 1 (ThT. Cat is 1, if Rel. ThT >2) | 2.383 | 3.347 | 3.347 | 2223.63 | 1 | 1 | 2224 | 2224 |  |  |  | 
2 | CKFKFQFNMW [KB14] |  | 1 (ThT. Cat is 1, if Rel. ThT >2) | 6.314 |  |  |  | 1 |  | 4107 | 4107 |  |  |  | 
3 | CKFKFQFNMWQ [BL2] | 2.427 | 1 (ThT. Cat is 1, if Rel. ThT >2) | 2.427 |  |  |  | 1 | 1 | 142.5 | 142.5 |  |  |  | 
4 | CKFKFQFW [TM72] | 1.802 |  |  | 4.466 | 4.466 | 29210.5 |  |  | 29210.5 |  |  |  |  | Zeta Count Rate Category [2, 10]: 1
5 | CKFKQFF [CK15] | 1.34 | 0 (ThT-inactive (N-Fold <2)) | 1.34 | 0.4099 | 0.4099 | 2.57 |  |  | 2.567 | 2.567 | 1.34 | 0 | 2.567 | Zeta Count Rate Category [2, 10]: 0
6 | CKFKQFFNM [CK14] | 45.97 | 1 (ThT. Cat is 1, if Rel. ThT >2) | 45.97 | 4.436 | 4.436 | 27264.3 |  |  | 27264.3 | 27264.3 | 45.97 | 1 | 27264.3 | Zeta Count Rate Category [2, 10]: 1
7 | CKFKQFFNMWQ [CK13] | 27.7 | 1 (ThT. Cat is 1, if Rel. ThT >2) | 27.7 |  |  |  |  | 1 | 8210 | 8210 | 27.7 | 1 | 8210 | 
8 | CKIKIQI [MG3b] | 3.939 | 1 (ThT. Cat is 1, if Rel. ThT >2) | 3.939 | 3.386 | 3.386 | 2432.9 | 1 | 1 | 2432.9 | 2432.9 |  |  |  | Zeta Count Rate Category [2, 10]: 1; Zeta Count Rate / kcps [2, 13]: 2432.9 kcps; Zeta Count Rate Category ([2]; key not given): 1
9 | CKIKIQINM [MG2] | 2.648 | 1 (ThT. Cat is 1, if Rel. ThT >2) | 2.648 |  |  |  | 1 | 1 | 4228 | 4228 |  |  |  | 
10 | CKIKIQINMW [TM86] | 1.353 | 0 (ThT-inactive (N-Fold <2)) | 1.353 |  |  |  | 1 | 1 | 4915 | 4915 |  |  |  | 
11 | CKIKIQINMWQ |  |  |  |  |  |  |  |  |  |  |  |  |  | Tht category (> 2 to blank = +) ([1]; Fig S10 panel D): 1 (ThT. Cat is 1, if Rel. ThT >2); ThT Cat. ([1]; Fig S10 panel E): 1 (ThT. Cat is 1, if Rel. ThT >2); ThT Cat, ([1]; ThT category, 1 if Rel. ThT >2): 1 (ThT. Cat is 1, if Rel. ThT >2); ThT Cat. ([1]; ThT fluorescence category, 1 if Rel. ThT >2): 1 (ThT. Cat is 1, if Rel. ThT >2); ThT Cat. / ThT-Fluorescence (categorical) ([1]; ThT-active if fluorescence at least twice the control): 1 (ThT. Cat is 1, if Rel. ThT >2); Log10 Count Rate ([2]; Log10 of derived count rate of scattered light (turbidity)): 3.274; Count Rate / kcps ([2]; derived count rate of scattered light at 633 nm, 173°, from zeta-potential measurement, 0.1 mg/mL in 1 mM KCl after 1 d at 1 mg/mL in PBS, turbidity / microscopic aggregation, mean of triplicate): 1881 kcps; Log10 Count Rate ([2]; log10 of derived count rate of scattered light (turbidity)): 3.274; Log10 Count Rate ([2]; turbidity, Log10 of derived count rate of scattered light, Figure 3A source data): 3.274
12 | CKIKIQINMWQ [MG1] | 4.566 | 1 (ThT. Cat is 1, if Rel. ThT >2) | 4.566 |  |  |  | 1 | 1 | 1881 | 1881 |  |  |  | 
13 | CKIKQII [MG4a] | 3.914 | 1 (ThT. Cat is 1, if Rel. ThT >2) | 3.914 | 1.873 | 1.873 | 74.6 |  | 0 | 74.6 | 74.6 | 3.914 | 0 | 74.6 | Zeta Count Rate / kcps [2, 13]: 74.6 kcps; Zeta Count Rate Category ([2]; key not given): 0
14 | CKIKQIINM [BL1] | 14.67 | 1 (ThT. Cat is 1, if Rel. ThT >2) | 14.67 |  |  |  |  | 1 | 9058 | 9058 | 14.67 | 1 | 9058 | 
15 | CKIKQIINMWQ [MG5a / CK17] | 48.46 | 1 (ThT. Cat is 1, if Rel. ThT >2) | 48.46 | 3.92 | 3.92 | 8316.83 |  | 1 | 8317 | 8317 | 48.46 | 1 | 8317 | Zeta Count Rate / kcps [2, 13]: 8317 kcps; Zeta Count Rate Category ([2]; key not given): 1
16 | CKWKWQW [KB4] |  | 0 (ThT-inactive (N-Fold <2)) | 1.321 | 3.876 | 3.876 | 7511.27 | 1 |  | 7511 |  |  |  |  | 
17 | CKYKYQY [KB2] |  | 1 (ThT. Cat is 1, if Rel. ThT >2) | 3.119 |  |  |  | 1 |  | 1061 |  |  |  |  | 
18 | CQFQFQF [QBL4] |  | 1 (ThT. Cat is 1, if Rel. ThT >2) | 13.03 | 3.899 | 3.899 | 7928.97 | 1 |  | 7929 |  |  |  |  | 

Reference: article PMC10447463, “Data-mining unveils structure–property–activity correlation of viral infectivity enhancing self-assembling peptides” (Nature Communications, 2023)
